Read-outs that look alike come from different tables or passages of the source.
Columns and labels:
anandamide transporter [1] = test: substrate translocation of radioactively labeled analogs (FIGS. 1 and 2); type: cell-based; parameters: dose or concentration left out as unconfirmed; settings: radioactively labeled compounds
anandamide transporter [2] = test: [3H]anandamide competition assay using a high throughput method; type: cell-based, human
anandamide transporter [3] = test: [3H]anandamide accumulation in cortical astrocytes in culture; type: cell-based, rat; settings: for effect on [3H]anandamide accumulation: cortical astrocytes; for prevention of the temperature-sensitive component of [3H]anandamide accumulation: cortical astrocytes in culture
PGE2 carrier = test: [3H]PGE2 accumulation in neurons or astrocytes; type: cell-based
Description: The bromcresol green, which blocks PGE2 transport, raised the question of whether anandamide accumulation occurred by means of a PGE2 carrier. That this is not the case was shown by the lack of [^3H]PGE2 accumulation in neurons or astrocytes and by the inability of PGE2 to interfere with [^3H]anandamide accumulation.

anandamide transporter [4] = test: [3H]anandamide accumulation in neurons; type: cell-based, rat
rat cerebral membranes = target: T1, rat cerebral membranes (Rattus norvegicus, UniProt P20272); test: binding of [3H]WIN-55212-2 to rat cerebral membranes
T1 construct: from tissue; host or cells: rat cerebral membranes
T1 sequence (P20272 whole entry): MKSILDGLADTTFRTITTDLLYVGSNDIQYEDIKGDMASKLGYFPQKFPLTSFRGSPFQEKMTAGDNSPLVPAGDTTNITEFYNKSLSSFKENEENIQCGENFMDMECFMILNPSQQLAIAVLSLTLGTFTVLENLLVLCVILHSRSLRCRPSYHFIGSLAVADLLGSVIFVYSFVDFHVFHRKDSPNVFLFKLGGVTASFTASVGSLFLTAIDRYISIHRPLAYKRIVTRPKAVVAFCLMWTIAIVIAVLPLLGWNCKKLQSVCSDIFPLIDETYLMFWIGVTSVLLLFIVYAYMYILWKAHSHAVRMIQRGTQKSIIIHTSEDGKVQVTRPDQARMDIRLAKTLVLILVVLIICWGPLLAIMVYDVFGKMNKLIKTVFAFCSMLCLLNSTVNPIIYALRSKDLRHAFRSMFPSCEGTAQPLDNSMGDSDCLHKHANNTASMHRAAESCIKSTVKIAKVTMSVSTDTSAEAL

astrocytes [5] = test: uptake of [3H]arachidonate in astrocytes; type: cell-based
astrocytes [6] = test: uptake of [3H]ethanolamine in astrocytes; type: cell-based
[7] = Table I, affinity for ligand recognition by the anandamide transporter
[8] = read-out: IC50 (AT inhib.) μM), Table II, anandamide transporter inhibition
[9] = Table II, anandamide transporter inhibition, read-out: IC50 (AT inhib.) μM)
[10] = astrocytes, single high-affinity component

CCCCC/C=C\C/C=C\C/C=C\C/C=C\CCCC(=O)Nc1ccc(O)cc1 [AM404, N-(4-hydroxyphenyl)arachidonamide, reference compound]
transport (translocation) compared with [3H]anandamide (anandamide transporter [1]): transported as rapidly and effectively as

CCCCC/C=C\C/C=C\C/C=C\C/C=C\CCCNC(=O)c1ccc(O)cc1 [AM1172]
IC50 (anandamide transporter [2]; [7]): 2 µM | transport (translocation) compared with [3H]anandamide (anandamide transporter [1]): transported as rapidly and effectively as

CCCCC/C=C\C/C=C\C/C=C\C/C=C\CCCCNC(=O)C(C)C [AM1177]
IC50 (anandamide transporter [2]; [7]): 5 µM | transport (translocation) compared with [3H]anandamide (anandamide transporter [1]): transported as rapidly and effectively as

CCCCC/C=C\C/C=C\C/C=C\C/C=C\CCCC(=O)OC1COC(c2ccccc2)OC1 (centres unmarked) [AM1191]
IC50 (anandamide transporter [2]; [7]): 0.8 µM | transport (translocation) compared with [3H]anandamide (anandamide transporter [1]): transported as rapidly and effectively as

CCCCCC=CCC=CCC=CCC=CCCCCOC(=O)NC(C)CO (centres unmarked) [Compound 1]
IC50 (anandamide transporter [2]; [8]): 7.1 µM

CCCCCC=CCC=CCC=CCC=CCCCCOC(=O)NC(C)CO (centres unmarked) [Compound 2]
IC50 (anandamide transporter [2]; [8]): 6.4 µM

CCCCCC=CCC=CCC=CCC=CCCCCOC(=O)NCC(C)O (centres unmarked) [Compound 3]
IC50 (anandamide transporter [2]; [8]): 1.5 µM

CCCCCC=CCC=CCC=CCC=CCCCCOC(=O)NCC(C)O (centres unmarked) [Compound 4]
IC50 (anandamide transporter [2]; [8]): 0.4 µM

CCCCCC=CCC=CCC=CCC=CCCCCOC(=O)NC(C)C [Compound 5]
IC50 (anandamide transporter [2]; [8]): 21.9 µM

CCCCCC=CCC=CCC=CCC=CCCCCOC(=O)NC1CC1 [Compound 6]
IC50 (anandamide transporter [2]; [8]): 15.5 µM

CCCCCC=CCC=CCC=CCC=CCCCCOC(=O)NC1CCC1 [Compound 7]
IC50 (anandamide transporter [2]; [8]): 15.5 µM

CCCCCC=CCC=CCC=CCC=CCCCCOC(=O)NC1CCCCC1 [Compound 8]
IC50 (anandamide transporter [2]; [8]): 33 µM

CCCCCC=CCC=CCC=CCC=CCCCCOC(=O)Nc1ccc(O)cc1 [Compound 9]
IC50 (anandamide transporter [2]; [8]): 6.6 µM

CCCCCC=CCC=CCC=CCC=CCCCCOC(=O)NC1=NCCS1 [Compound 10]
IC50 (anandamide transporter [2]; [9]): 8.6 µM

CCCCCC=CCC=CCC=CCC=CCCCCOC(=O)Nc1cccnc1 [Compound 11]
IC50 (anandamide transporter [2]; [8]): 16.1 µM

CCCCCC=CCC=CCC=CCC=CCCCCNC(=O)NCC(C)O (centres unmarked) [Compound 12]
IC50 (anandamide transporter [2]; [8]): 1.78 µM

CCCCCC=CCC=CCC=CCC=CCCCCNC(=O)OCC(C)O (centres unmarked) [Compound 16]
IC50 (anandamide transporter [2]; [8]): 3.29 µM

CCCCC/C=C\C/C=C\C/C=C\C/C=C\CCCC(=O)Nc1nccs1 [Compound 17]
IC50 (anandamide transporter [2]; [9]): 1.7 µM

CCCCC/C=C\C/C=C\C/C=C\C/C=C\CCCC(=O)NC1=NCCS1 [Compound 18]
IC50 (anandamide transporter [2]; [9]): 2.8 µM

CCCCC/C=C\C/C=C\C/C=C\C/C=C\CCCC(=O)Nc1nncs1 [Compound 19]
IC50 (anandamide transporter [2]; [9]): 1.5 µM

CCCCC/C=C\C/C=C\C/C=C\C/C=C\CCCC(=O)Nc1nc2ccccc2s1 [Compound 20]
IC50 (anandamide transporter [2]; [9]): 44.2 µM

CCCCC/C=C\C/C=C\C/C=C\C/C=C\CCCC(=O)Nc1nc(Br)cs1 [Compound 21]
IC50 (anandamide transporter [2]; [9]): 92.3 µM

CCCCC/C=C\C/C=C\C/C=C\C/C=C\CCCC(=O)Nc1ncc([N+](=O)[O-])s1 [Compound 22]
IC50 (anandamide transporter [2]; [9]): 14.1 µM

CCCCC/C=C\C/C=C\C/C=C\C/C=C\CCCC(=O)Nc1nc(C)cs1 [Compound 23]
IC50 (anandamide transporter [2]; [9]): 11.2 µM

CCCCC/C=C\C/C=C\C/C=C\C/C=C\CCCC(=O)Nc1nc(C)c(C)s1 [Compound 24]
IC50 (anandamide transporter [2]; [9]): 26 µM

CCCCC/C=C\C/C=C\C/C=C\C/C=C\CCCC(=O)Nc1nc(C(C)(C)C)cs1 [Compound 25]
IC50 (anandamide transporter [2]; [9]): 24.1 µM

CCCCC[C@H](O)/C=C/[C@H]1[C@H](O)CC(=O)[C@@H]1C/C=C\CCCC(=O)O [PGE2, prostaglandin E2]
interference with [3H]anandamide accumulation (anandamide transporter [3]): inability | accumulation of [3H]PGE2 (PGE2 carrier): lack

Cc1c(C(=O)NN2CCCCC2)nn(-c2ccc(Cl)cc2Cl)c1-c1ccc(Cl)cc1.Cl [SR-141716-A]
displacement of the higher affinity component of [3H]anandamide accumulation (anandamide transporter [4]; neurons, 100 nM): displaced | effect on [3H]anandamide accumulation (anandamide transporter [3]; 10 μM): no effect

Cc1c(C(=O)c2cccc3ccccc23)c2cccc3c2n1[C@H](CN1CCOCC1)CO3 [WIN-55212-2]
effect on [3H]anandamide accumulation (anandamide transporter [3]; 1 μM): no effect

CCCCC/C=C\C/C=C\C/C=C\C/C=C\CCCC(=O)NCCO [anandamide, Arachidonyl ethanolamide]
time to reach 50% of maximum accumulation (anandamide transporter [4]; neurons and astrocytes): about four | Vmax (anandamide transporter [4]; neurons, higher affinity component): 5.9 pmol/min per milligram of protein | Km (anandamide transporter [4]; neurons, higher affinity component, read-out: Km): 32 nM | maximum accumulation rate, Vmax (anandamide transporter [4]; neurons, lower affinity component): 90.9 pmol/min per milligram of protein | Km (anandamide transporter [4]; neurons, lower affinity component, read-out: Michaelis constant, Km): 1200 nM | Km (anandamide transporter [3]; [10]): 320 nM | Vmax (anandamide transporter [3]; [10]): 171 pmol/min per milligram of protein | prevention of the temperature-sensitive component of [3H]anandamide accumulation (anandamide transporter [3]): prevented

Cc1c(C2(c3cc(Br)c(O)c(Br)c3C)OS(=O)(=O)c3ccccc32)cc(Br)c(O)c1Br [bromcresol green]
mode of inhibition of [3H]anandamide accumulation (anandamide transporter [4]; neurons and astrocytes): noncompetitively | effect on the binding of [3H]WIN-55212-2 (rat cerebral membranes): no significant effect | effect on uptake of [3H]arachidonate (astrocytes [5]): no significant effect | effect on uptake of [3H]ethanolamine (astrocytes [6]): no significant effect

CCCCCCCCCCCCCCCC(=O)NCCO [palmitoyl ethanolamide]
prevention of the temperature-sensitive component of [3H]anandamide accumulation (anandamide transporter [3]): not

— US7589220B2, “Inhibitors of the anandamide transporter” (priority 1998, dated 2009)
